Source: ChEMBL document CHEMBL1127083 (J Med Chem, 1993)

Experiments:
Leukotriene B4 receptor = Leukotriene B4 receptor (Homo sapiens, UniProt Q9NPC1+Q15722); assay: Inhibition of LTB4-induced up-regulation of human neutrophil CD11b/CD18 integrin; type: functional
[1] = molecular target: Leukotriene B4 receptor 1 (Homo sapiens, UniProt Q15722); assay: Tested for inhibition of specific binding of [3H]LTB4 to human neutrophil expressing LTB4 receptor
Chain of Leukotriene B4 receptor 1 (Q15722 whole entry): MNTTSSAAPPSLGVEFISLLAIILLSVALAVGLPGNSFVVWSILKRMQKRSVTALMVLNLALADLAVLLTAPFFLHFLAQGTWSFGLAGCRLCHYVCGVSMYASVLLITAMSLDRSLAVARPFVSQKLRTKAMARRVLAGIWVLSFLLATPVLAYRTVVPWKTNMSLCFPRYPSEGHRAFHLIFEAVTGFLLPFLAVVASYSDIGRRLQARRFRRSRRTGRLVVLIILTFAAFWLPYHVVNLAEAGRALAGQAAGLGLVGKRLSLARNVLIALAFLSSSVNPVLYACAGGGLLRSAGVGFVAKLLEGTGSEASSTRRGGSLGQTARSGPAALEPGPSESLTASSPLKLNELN

IC50 (Leukotriene B4 receptor) | Ki [1] | SMILES
5.4 nM | 22 nM | CCc1cc(-c2ccccc2)c(O)cc1OCCCOc1ccc2c(=O)c3ccccc3oc2c1CCC(=O)O
1.2 nM | 0.47 nM | CCc1cc(-c2ccc(F)cc2)c(O)cc1OCCCOc1ccc2c(=O)c3cc(C(=O)O)ccc3oc2c1CCC(=O)O
3.4 nM | 0.57 nM | CCc1cc(-c2ccccc2)c(O)cc1OCCCOc1ccc2c(=O)c3cc(C(=O)O)ccc3oc2c1CCC(=O)O
1.8 nM | 36 nM | CCc1cc(-c2ccc(F)cc2)c(O)cc1OCCCOc1ccc2c(=O)c3ccccc3oc2c1CCC(=O)O
